In the NIST ThermoML archive (doi:10.1016/j.tca.2012.04.033):

Tests used:
[1] = Crystal; DTA
[2] = xn = mol fraction of the nth substance listed; settings: 101 kPa, Liquid, Vibrating tube method
[3] = refractive index (Na D-line) (dimensionless); xn = mol fraction of the nth substance listed; settings: 101 kPa, Liquid, Standard Abbe refractometry

C[Si](O[Si](C)(c1ccccc1)c1ccccc1)(c1ccccc1)c1ccccc1 [1,3-dimethyl-1,1,3,3-tetraphenyldisiloxane]
Settings | Normal melting temperature [°C]
[1] | 49.70

C[Si](O[Si](C)(c1ccccc1)c1ccccc1)(c1ccccc1)c1ccccc1 [1,3-dimethyl-1,1,3,3-tetraphenyldisiloxane] + CC(C)O
303.15 K
Settings | mass density, x1 = 0.00125 [kg/m3] | mass density, x1 = 0.00359 [kg/m3] | mass density, x1 = 0.00759 [kg/m3] | mass density, x1 = 0.01218 [kg/m3] | mass density, x1 = 0.01284 [kg/m3] | refractive index, x1 = 0.00125 | refractive index, x1 = 0.00359 | refractive index, x1 = 0.00759 | refractive index, x1 = 0.01218 | refractive index, x1 = 0.01284
[2] | 778.65 | 783.03 | 788.42 | 794.61 | 795.14 | – | – | – | – | –
[3] | – | – | – | – | – | 1.37416 | 1.37721 | 1.38094 | 1.38528 | 1.38568

C[Si](O[Si](C)(c1ccccc1)c1ccccc1)(c1ccccc1)c1ccccc1 [1,3-dimethyl-1,1,3,3-tetraphenyldisiloxane] + CCCO
303.15 K
Settings | mass density, x1 = 0.00161 [kg/m3] | mass density, x1 = 0.00428 [kg/m3] | mass density, x1 = 0.00956 [kg/m3] | mass density, x1 = 0.01076 [kg/m3] | mass density, x1 = 0.01339 [kg/m3] | refractive index, x1 = 0.00161 | refractive index, x1 = 0.00428 | refractive index, x1 = 0.00956 | refractive index, x1 = 0.01076 | refractive index, x1 = 0.01339
[2] | 797.94 | 801.12 | 808.9 | 810.51 | 813.97 | – | – | – | – | –
[3] | – | – | – | – | – | 1.38273 | 1.38545 | 1.39061 | 1.39176 | 1.39425

C[Si](O[Si](C)(c1ccccc1)c1ccccc1)(c1ccccc1)c1ccccc1 [1,3-dimethyl-1,1,3,3-tetraphenyldisiloxane] + CCO
298.15 K
Settings | mass density, [2] [kg/m3] | refractive index, [3]
x1 = 0.0009 | 787.37 | 1.36085
x1 = 0.00225 | 789.76 | 1.36263
x1 = 0.00446 | 794.07 | 1.36586
x1 = 0.00667 | 798.07 | 1.36893
x1 = 0.00825 | 801.34 | 1.37139
x1 = 0.01059 | 805.13 | 1.37427
x1 = 0.01252 | 808.66 | 1.37693

C[Si](O[Si](C)(c1ccccc1)c1ccccc1)(c1ccccc1)c1ccccc1 [1,3-dimethyl-1,1,3,3-tetraphenyldisiloxane] + CO
298.15 K
Settings | mass density, x1 = 0.00036 [kg/m3] | mass density, x1 = 0.0009 [kg/m3] | mass density, x1 = 0.0018 [kg/m3] | mass density, x1 = 0.00241 [kg/m3] | mass density, x1 = 0.00364 [kg/m3] | refractive index, x1 = 0.00036 | refractive index, x1 = 0.0009 | refractive index, x1 = 0.0018 | refractive index, x1 = 0.00241 | refractive index, x1 = 0.00364
[2] | 787.68 | 789.17 | 791.71 | 793.31 | 796.57 | – | – | – | – | –
[3] | – | – | – | – | – | 1.3274 | 1.3287 | 1.33084 | 1.33228 | 1.33509

C[Si](O[Si](C)(c1ccccc1)c1ccccc1)(c1ccccc1)c1ccccc1 [1,3-dimethyl-1,1,3,3-tetraphenyldisiloxane] + C[Si]1(C)O[Si](C)(C)O[Si](C)(C)O[Si](C)(C)O1
303.15 K
Settings | mass density, x1 = 0.00724 [kg/m3] | mass density, x1 = 0.01526 [kg/m3] | mass density, x1 = 0.02752 [kg/m3] | mass density, x1 = 0.04184 [kg/m3] | mass density, x1 = 0.05492 [kg/m3] | refractive index, x1 = 0.00724 | refractive index, x1 = 0.01526 | refractive index, x1 = 0.02752 | refractive index, x1 = 0.04184 | refractive index, x1 = 0.05492
[2] | 946.03 | 947.52 | 949.77 | 952.36 | 954.7 | – | – | – | – | –
[3] | – | – | – | – | – | 1.39358 | 1.39553 | 1.3985 | 1.40193 | 1.40505
